This test deals with HeLa cells. In words: Nuclear morphology of apoptosis (DAPI) in transfected HeLa cells. It counts as cell-based. The text has this: HeLa cells transfected with GFP-vector (vector), GFP-survivin(T34A) (T34A), or GFP-caspase-9 (Met^1-Asp^330) (caspase-9), were scored morphologically for nuclear integrity by DAPI staining after 48-h. Arrows, nuclear fragmentation and chromatin condensation in GFP-expressing cells.
The experimental procedures are the same as in A. Data are the meaνSEM of four independent experiments.
HeLa cells were transfected with the various indicated combinations of GFP-constructs, with or without etoposide (10 μg/ml) or TNFα (10 ng/ml) plus cycloheximide (10 μg/ml), harvested after 48 h, and GFP-labeled cells were morphologically scored for nuclear fragmentation by DAPI staining, as described in FIG. 2B. DN, dominant negative. Data are the mea±SEM of four independent experiments.
Transfection experiments. For transient transfection, HeLa cells in C-6 tissue culture plates (Costar, Cambridge, Mass.) at ˜60-70% confluency, were incubated in 1 ml of serum-free OptiMEM medium (Life Technologies, Gaithersburg, Md.) for 20 min, and transfected with 2.5 μg of the various plasmid cDNAs plus 9 μl Lipofectamine (Life Technologies). After a 5 h incubation at 37° C., the mixture was aspirated and substituted with complete growth medium for 48-72 h. To generate stable YUSAC-2 transfectants, a survivin(T34A) cDNA was inserted into the HindIII-SpeI sites of the pTet-splice vector (Dr. D. Schatz, Yale University School of Medicine), downstream of the regulatory sequences of the Tet-resistance operon (TetO). YUSAC-2 cells were transfected with 0.8 μg pTet-T34A, 0.8 μg of the transactivation/selection plasmid ptTA-Neo and 5 μl Lipofectamine in 1 ml of OptiMem. Forty-eight h after transfection, cells were re-plated at low density in 15×150 mm plates in growth medium containing 1.5 mg/ml Geneticin (G418, Life Technologies), 2 mM sodium hydroxide and 0.5 μg/ml Tet (Sigma, St. Louis, Mo.) (selection medium). After a 3-week culture, ninety-six individual clones were screened for differential growth in the presence or absence of Tet. […] Flow cytometry. HeLa cells transfected with the various GFP constructs in the presence or in the absence of the broad-spectrum caspase inhibitor Z-VAD-fmk (20 μM) were harvested after 48-h (non-adherent and adherent cells), washed in PBS, pH 7.0, and fixed in cold 70% ethanol for 30 min on ice. After washes in PBS, cells (10×10^6/ml) were stained with 25 μg/ml propidium iodide (Sigma), 0.05% Triton X-100 and 100 μg/ml RNAse A (Boehringer Mannheim, Indianapolis, Ind.) for 45 min at 22° C. Gated GFP-expressing cells were analyzed for DNA content by flow cytometry on a FACSort (Becton Dickinson, San Jose, Calif.) using a Cell Quest software. In other experiments, F5-C4 cells were synchronized at the G1/S boundary by culture with 5-mM thymidine for 16 h at 37° C., in the presence or in the absence of Tet. At the end of the incubation, cells were released from the thymidine block, and harvested at 3-h intervals for DNA content analysis by propidium iodide staining and flow cytometry, or, alternatively, for caspase-9 processing by Western blotting (see below). TUNEL staining. Internucleosomal DNA fragmentation of F5.C4 cells in the presence or in the absence of Tet was carried out by end-labeling with terminal deoxynucleotidyl transferase (TdT) and peroxidase-conjugated anti-digoxigenin antibody using the ApopTag kit (Intergen, Purchase, N.Y.), as described previously (Grossman et al., 1999). Immunoprecipitation and Western blotting. Asynchronously growing or synchronized HeLa cells were lysed in 200 μl of lysis buffer containing 50 mM Tris, pH 7.5, 1% NP-40, 0.25% DOC, 150 mM NaCl, 1 mM PMSF, 10 μg/ml aprotinin, 10 μg/ml leupeptin, 10 μg/ml pepstatin, 1 mM Na3VO4, 20 mM NaF, 0.2 mM EGTA, 1 mM EDTA, pH 8.0, for 30 min at 4° C. Insoluble material was removed by centrifugation at 14,000 rpm for 15 min, and two-hundred μg of protein lysate was pre-absorbed with 25 μl of a 50:50 Protein A Sepharose slurry (Pharmacia) for 3 h at 4° C. with constant agitation. […]

1 substance from patent publication US7553821B2, “Methods for selectively modulating survivin apoptosis pathways” (Yale University, priority 2000, dated 2009) can be followed below.

For “survivin(T34A): dominant-negative, non-phosphorylatable survivin mutant with Thr34→Ala substitution, expressed from transfected cDNA (also HA- or GFP-tagged)”, the “spontaneous chromatin condensation and DNA fragmentation, GFP-expressing cells” value (GFP fusion, 48 h, no exogenous apoptotic stimuli) is recorded as ~80%. The “ability to induce spontaneous apoptosis upon transient transfection” value (survivin BIR domain mutants) is reported as “particularly effective”.
